The text below walks through data of patent US11649227B2, “Allosteric chromenone inhibitors of phosphoinositide 3-kinase (PI3K) for the treatment of disease” (Petra Pharma Corporation, priority 2020, dated 2023).

Read-outs that look alike come from different tables or passages of the source.

One data set has as its system T-47D. Description: Cellular Assay T-47D. It counts as cell-based. To be noted: Homo sapiens, T47D; T-47D cells.
The target in another data set is PI3K-B (Homo sapiens (Human), UniProt P42338). Description: Selectivity against selected lipid kinases: PI3K-B. It counts as biochemical.
The next data set deals with PI3K-D (Homo sapiens (Human), UniProt O00329). Description: Selectivity against selected lipid kinases: PI3K-D. It counts as biochemical.
The target of the next data set is PI3K-G (Homo sapiens (Human), UniProt P48736). Description: Selectivity against selected lipid kinases: PI3K-G. It counts as biochemical.
For another data set, the target named is Vps34 (Homo sapiens (Human), UniProt Q8NEB9). Put plainly: Selectivity against selected lipid kinases: Vps34. It counts as biochemical.
In a further data set the target is DNA-PK (Homo sapiens (Human), UniProt P78527). Description: Selectivity against selected lipid kinases: DNA-PK. It counts as biochemical.
The target of a further data set is mTOR (Homo sapiens (Human), UniProt P42345). Put plainly: Selectivity against selected lipid kinases: mTOR. It counts as biochemical.
Another data set can be described thus: Mouse PK Assays. The conditions noted are these: in vivo; for clearance: read-out: PK-Mouse: IV Cl; for bioavailability: read-out: PK-Mouse: PO F (%).
The target in data set [1] is human full length PIK3CA Wild-type (p110α/p85α complex) (Homo sapiens (Human), UniProt P42336). Put plainly: PI3K-Alpha kinase (PIK3CA) activity, wild-type, Transcreener ADP2 FI assay. To be noted: PI3K-α (PIK3CA) wild-type, biochemical. Put shortly:
(§1)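 Recombinant full-length p110α/p85α (1-5 nM, wild-type or H1047R) preincubated with compound 1 h at 27° C, then reacted with 25 uM ATP and 50 uM PIP2diC8 or membrane PIP2:PS in pH 7.4 HEPES, 25 mM MgCl2, 5% DMSO (also pH 6.0/6.4 MOPS). Run to ~2.5 uM ADP; Transcreener ADP2 fluorescence converted via ADP calibration for IC50.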

The target in data set [2] is human full length PIK3CA H1047R mutant (p110α/p85α complex) (Homo sapiens (Human), UniProt P42336, H1047R). Put plainly: PI3K-Alpha kinase (PIK3CA) activity, H1047R mutant, Transcreener ADP2 FI assay. To be noted: PI3K-α (PIK3CA) H1047R mutant, biochemical. Put shortly:
as §1

The mark [3] stands for this setting: IV 1 mg/kg, read-out: PK-Mouse: IV-AUC-0-last.
The mark [4] stands for this setting: PO 10 mg/kg, 20% DMSO/60% PEG400/20% Water, fed.
[5] abbreviates: PO 50 mg/kg, 20% DMSO/60% PEG400/20% Water, fed.
Where [6] appears, read: PO 50 mg/kg, 20% DMSO/60% PEG400/20% Water, fed, read-out: PK-Mouse: PO AUC-0-last.
Where [7] appears, read: PO 10 mg/kg, 30% SBE-beta-cyclodextrin, fed.

PI3K-D, sequence (O00329 whole entry): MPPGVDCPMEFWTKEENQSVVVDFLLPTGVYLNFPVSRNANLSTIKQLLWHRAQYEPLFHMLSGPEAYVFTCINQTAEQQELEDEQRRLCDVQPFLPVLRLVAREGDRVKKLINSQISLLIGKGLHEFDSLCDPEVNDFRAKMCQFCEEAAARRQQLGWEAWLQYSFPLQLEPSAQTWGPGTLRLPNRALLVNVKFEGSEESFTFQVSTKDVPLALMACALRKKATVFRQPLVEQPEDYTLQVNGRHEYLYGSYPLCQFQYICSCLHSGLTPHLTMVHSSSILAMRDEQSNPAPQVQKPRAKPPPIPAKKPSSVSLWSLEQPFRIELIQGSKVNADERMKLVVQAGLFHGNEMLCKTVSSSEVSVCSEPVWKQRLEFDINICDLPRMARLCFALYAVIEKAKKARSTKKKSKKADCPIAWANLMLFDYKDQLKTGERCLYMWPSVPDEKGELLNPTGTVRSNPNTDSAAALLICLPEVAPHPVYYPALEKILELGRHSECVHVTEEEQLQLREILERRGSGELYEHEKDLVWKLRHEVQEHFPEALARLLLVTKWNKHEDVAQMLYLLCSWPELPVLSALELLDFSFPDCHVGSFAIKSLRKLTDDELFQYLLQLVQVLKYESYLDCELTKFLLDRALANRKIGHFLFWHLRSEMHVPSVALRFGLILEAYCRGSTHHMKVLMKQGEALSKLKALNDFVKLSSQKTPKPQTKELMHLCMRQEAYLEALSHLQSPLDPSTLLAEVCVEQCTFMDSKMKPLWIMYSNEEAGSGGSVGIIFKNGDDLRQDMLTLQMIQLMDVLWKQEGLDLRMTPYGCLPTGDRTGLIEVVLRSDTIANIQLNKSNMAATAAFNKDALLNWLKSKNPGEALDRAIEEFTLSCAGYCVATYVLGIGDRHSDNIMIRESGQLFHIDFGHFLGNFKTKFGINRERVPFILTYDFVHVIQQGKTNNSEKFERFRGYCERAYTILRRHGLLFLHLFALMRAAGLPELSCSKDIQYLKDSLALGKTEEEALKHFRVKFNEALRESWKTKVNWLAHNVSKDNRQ
PI3K-D, sequence (P27986 whole entry partner): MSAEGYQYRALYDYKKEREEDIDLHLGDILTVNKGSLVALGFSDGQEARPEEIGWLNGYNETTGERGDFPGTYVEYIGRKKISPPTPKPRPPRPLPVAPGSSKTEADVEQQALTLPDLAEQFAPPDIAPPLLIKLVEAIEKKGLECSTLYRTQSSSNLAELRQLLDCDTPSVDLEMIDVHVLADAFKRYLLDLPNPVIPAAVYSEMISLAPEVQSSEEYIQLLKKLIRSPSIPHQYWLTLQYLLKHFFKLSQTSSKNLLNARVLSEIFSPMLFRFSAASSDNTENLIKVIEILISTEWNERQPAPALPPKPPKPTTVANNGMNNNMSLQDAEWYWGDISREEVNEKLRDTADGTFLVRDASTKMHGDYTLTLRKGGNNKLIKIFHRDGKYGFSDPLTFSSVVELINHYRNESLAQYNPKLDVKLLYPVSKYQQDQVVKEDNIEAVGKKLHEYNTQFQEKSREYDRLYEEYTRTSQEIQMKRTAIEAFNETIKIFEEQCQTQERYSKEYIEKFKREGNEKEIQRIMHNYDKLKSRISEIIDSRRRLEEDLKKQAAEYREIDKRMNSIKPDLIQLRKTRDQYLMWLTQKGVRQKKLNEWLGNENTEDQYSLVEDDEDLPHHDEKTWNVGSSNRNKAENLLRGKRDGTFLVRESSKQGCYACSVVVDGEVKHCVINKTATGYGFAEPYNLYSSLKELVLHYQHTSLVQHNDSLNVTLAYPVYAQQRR
PI3K-B, sequence (P42338 whole entry): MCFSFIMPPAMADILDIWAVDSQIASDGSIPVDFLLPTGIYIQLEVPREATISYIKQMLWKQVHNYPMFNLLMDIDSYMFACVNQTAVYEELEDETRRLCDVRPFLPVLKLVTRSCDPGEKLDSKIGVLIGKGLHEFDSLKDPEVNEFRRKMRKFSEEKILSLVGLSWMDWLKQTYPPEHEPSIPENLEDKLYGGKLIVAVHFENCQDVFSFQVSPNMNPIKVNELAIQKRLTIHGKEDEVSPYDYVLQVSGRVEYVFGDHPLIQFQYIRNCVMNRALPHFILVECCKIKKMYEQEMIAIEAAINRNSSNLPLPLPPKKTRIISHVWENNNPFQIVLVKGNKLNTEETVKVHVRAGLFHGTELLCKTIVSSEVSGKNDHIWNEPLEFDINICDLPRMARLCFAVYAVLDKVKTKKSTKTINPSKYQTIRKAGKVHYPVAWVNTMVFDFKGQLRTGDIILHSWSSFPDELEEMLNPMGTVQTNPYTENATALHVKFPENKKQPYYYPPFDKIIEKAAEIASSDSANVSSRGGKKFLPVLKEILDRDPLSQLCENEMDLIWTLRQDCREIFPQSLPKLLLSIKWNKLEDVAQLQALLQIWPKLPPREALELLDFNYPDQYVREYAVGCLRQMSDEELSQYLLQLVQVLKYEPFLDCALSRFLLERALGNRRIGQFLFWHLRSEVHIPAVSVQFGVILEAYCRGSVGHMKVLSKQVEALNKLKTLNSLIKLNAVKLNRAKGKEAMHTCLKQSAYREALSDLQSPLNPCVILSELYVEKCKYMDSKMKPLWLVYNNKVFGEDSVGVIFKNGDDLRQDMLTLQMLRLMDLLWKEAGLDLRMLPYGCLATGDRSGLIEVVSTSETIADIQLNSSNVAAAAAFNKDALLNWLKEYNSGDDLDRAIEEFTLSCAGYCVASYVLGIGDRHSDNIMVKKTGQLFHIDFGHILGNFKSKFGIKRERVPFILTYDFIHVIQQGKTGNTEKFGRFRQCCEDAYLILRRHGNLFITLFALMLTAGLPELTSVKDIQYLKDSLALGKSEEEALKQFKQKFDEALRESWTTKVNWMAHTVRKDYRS
PI3K-B, sequence (P27986 whole entry partner): as the sequence (P27986 whole entry partner) above
human full length PIK3CA H1047R mutant (p110α/p85α complex), sequence (P42336 whole entry H1047R): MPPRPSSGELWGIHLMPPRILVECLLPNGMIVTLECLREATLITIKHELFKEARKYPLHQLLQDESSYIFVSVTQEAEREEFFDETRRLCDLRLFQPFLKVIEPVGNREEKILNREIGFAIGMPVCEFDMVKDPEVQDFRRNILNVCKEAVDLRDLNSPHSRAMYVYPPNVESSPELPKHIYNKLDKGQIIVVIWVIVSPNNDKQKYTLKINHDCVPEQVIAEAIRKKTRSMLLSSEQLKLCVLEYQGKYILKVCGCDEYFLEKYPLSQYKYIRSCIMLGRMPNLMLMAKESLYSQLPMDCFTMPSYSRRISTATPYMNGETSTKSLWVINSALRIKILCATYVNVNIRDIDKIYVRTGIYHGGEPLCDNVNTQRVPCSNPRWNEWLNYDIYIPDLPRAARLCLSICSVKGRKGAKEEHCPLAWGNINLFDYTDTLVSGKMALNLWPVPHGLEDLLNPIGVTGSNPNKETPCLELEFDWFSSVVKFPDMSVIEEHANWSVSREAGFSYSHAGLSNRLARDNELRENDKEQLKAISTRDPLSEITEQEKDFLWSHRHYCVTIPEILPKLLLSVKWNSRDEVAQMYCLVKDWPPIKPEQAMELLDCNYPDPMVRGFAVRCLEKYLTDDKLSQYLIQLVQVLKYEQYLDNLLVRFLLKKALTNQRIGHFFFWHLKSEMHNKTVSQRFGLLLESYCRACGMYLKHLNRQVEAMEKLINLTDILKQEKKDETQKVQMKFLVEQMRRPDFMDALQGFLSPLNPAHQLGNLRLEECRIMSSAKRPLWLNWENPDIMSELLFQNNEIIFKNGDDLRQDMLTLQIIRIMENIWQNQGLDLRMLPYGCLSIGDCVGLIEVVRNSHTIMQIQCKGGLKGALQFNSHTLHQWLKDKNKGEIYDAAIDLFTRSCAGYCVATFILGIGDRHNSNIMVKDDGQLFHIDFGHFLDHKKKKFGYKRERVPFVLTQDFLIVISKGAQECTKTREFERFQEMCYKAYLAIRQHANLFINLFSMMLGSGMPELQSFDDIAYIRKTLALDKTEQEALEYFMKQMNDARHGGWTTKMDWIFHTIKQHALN
human full length PIK3CA H1047R mutant (p110α/p85α complex), sequence (P27986 whole entry partner): as the sequence (P27986 whole entry partner) above
Vps34, sequence (Q8NEB9 whole entry, species assumed): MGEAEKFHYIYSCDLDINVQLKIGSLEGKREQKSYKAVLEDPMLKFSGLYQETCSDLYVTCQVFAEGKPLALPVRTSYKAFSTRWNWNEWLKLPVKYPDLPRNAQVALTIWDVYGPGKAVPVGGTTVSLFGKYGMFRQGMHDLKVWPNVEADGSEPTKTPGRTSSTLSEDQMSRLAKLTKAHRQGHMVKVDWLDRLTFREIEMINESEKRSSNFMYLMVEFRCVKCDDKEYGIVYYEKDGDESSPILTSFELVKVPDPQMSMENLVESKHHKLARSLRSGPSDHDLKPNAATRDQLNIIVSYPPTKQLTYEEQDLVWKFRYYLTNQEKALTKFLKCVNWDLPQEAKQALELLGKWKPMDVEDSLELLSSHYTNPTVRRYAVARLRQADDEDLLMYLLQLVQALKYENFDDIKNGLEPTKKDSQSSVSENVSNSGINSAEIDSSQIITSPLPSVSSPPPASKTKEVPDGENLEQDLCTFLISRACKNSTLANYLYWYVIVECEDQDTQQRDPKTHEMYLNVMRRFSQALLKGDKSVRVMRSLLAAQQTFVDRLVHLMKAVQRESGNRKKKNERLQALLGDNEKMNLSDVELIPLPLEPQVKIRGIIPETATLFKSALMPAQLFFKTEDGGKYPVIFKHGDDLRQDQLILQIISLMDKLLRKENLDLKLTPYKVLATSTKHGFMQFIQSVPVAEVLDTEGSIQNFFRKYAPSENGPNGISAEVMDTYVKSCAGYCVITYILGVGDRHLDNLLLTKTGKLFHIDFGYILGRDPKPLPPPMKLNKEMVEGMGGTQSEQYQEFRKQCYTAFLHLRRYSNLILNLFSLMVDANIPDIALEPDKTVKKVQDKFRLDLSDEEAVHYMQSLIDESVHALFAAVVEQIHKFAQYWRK
human full length PIK3CA Wild-type (p110α/p85α complex), sequence (P42336 whole entry): as the sequence (P42336 whole entry H1047R) above, with R1047H counted along it
human full length PIK3CA Wild-type (p110α/p85α complex), sequence (P27986 whole entry partner): as the sequence (P27986 whole entry partner) above

Broadly, the EC50 is the concentration that produces a half-maximal response. Lower therefore signals greater potency. One may read the IC50 as the concentration that gives 50% inhibition. Read a high IC50 as a need for much substance. Usually Cmax stands for the maximum level reached in the sampled fluid or tissue. For `Cc1cc(C(C)Nc2ccccc2C(=O)O)c2oc(N3Cc4ccccc4C3)cc(=O)c2c1` (single isomer, unassigned) [Example 363, 2-[1-(2-Isoindolin-2-yl-6-methyl-4-oxo-chromen-8-yl)ethylamino]benzoic acid], the EC50 with T-47D lay within 1 to 5 µM. Besides, the IC50 at PI3K-B is 0.11 µM; against PI3K-D, greater than 10 µM; against PI3K-G, greater than 10 µM; against Vps34, 0.45 µM; at DNA-PK it was 0.98 µM; at mTOR, 7.8 µM. Moreover, the clearance in the data set “Mouse PK Assays” (IV 1 mg/kg) turned out to be 8.2 mL/min/kg. The AUC(0-t) in “Mouse PK Assays” (setting [3]) amounted to 2130 ng·h/mL; in the data set “Mouse PK Assays” (PO 10 mg/kg, 20% DMSO/60% PEG400/20% Water, fed, read-out: PK-Mouse: PO AUC-0-last), 18000 ng·h/mL; in “Mouse PK Assays” (setting [6]) it was 31000 ng·h/mL. Further, the values for the peak concentration (Cmax) in “Mouse PK Assays” (setting [4]) and in the data set “Mouse PK Assays” (setting [5]) were 1300 ng/mL and 5100 ng/mL, respectively. Further, the bioavailability in the data set “Mouse PK Assays” (setting [4]) worked out at 87%; in the data set “Mouse PK Assays” (setting [5]), 33%.

As to `Cc1cc(C(C)Nc2ccccc2C(=O)O)c2oc(N3CCC(C)(C)CC3)cc(=O)c2c1` (single isomer, unassigned) [Example 366, 2-[1-[2-(4,4-Dimethyl-1-piperidyl)-6-methyl-4-oxo-chromen-8-yl]ethylamino]benzoic acid], the half-maximal effective concentration (EC50) in the data set on T-47D lay within 1 to 5 µM. The IC50 against PI3K-B, at PI3K-D, at PI3K-G, at Vps34, against DNA-PK and on mTOR was greater than 10 µM each time. Also, in “Mouse PK Assays” (IV 1 mg/kg), the clearance came out at 43 mL/min/kg. The AUC(0-t) in “Mouse PK Assays” (setting [3]) amounted to 343 ng·h/mL; in “Mouse PK Assays” (PO 10 mg/kg, 30% SBE-beta-cyclodextrin, fed, read-out: PK-Mouse: PO AUC-0-last) it was 3.9 ng·h/mL; in “Mouse PK Assays” (setting [6]) it was 48 ng·h/mL; in the data set “Mouse PK Assays” (PO 100 mg/kg, 20% DMSO/60% PEG400/20% H2O, fed, read-out: PK-Mouse: PO AUC-0-last), 76 ng·h/mL. The maximum concentration (Cmax) was determined as 350 ng/mL in the data set “Mouse PK Assays” (setting [7]); 8.56 ng/mL in “Mouse PK Assays” (setting [5]); 22.6 ng/mL in the data set “Mouse PK Assays” (PO 100 mg/kg, 20% DMSO/60% PEG400/20% H2O, fed). In “Mouse PK Assays” (setting [7]), the bioavailability turned out to be 100%.

For `Cc1cc(C(C)Nc2ccccc2C(=O)O)c2oc(N3CCC4(CCCCO4)CC3)cc(=O)c2c1` (stereo not shown) [Example 93, 2-[1-[6-Methyl-2-(1-oxa-9-azaspiro[5.5]undecan-9-yl)-4-oxo-chromen-8-yl]ethylamino]benzoic acid], the results for the half-inhibitory concentration (IC50) in data set [1] and in [2] were 5 to 10 µM and 0.5 to 1 µM, respectively. In the data set on T-47D, this compound had an EC50 of 5 to 15 µM.

In the case of `Cc1cc(C(C)Nc2ccccc2C(=O)O)c2oc(N3CCC4(CCCC4)CC3)cc(=O)c2c1` (stereo not shown) [Example 96, 2-[1-[2-(8-Azaspiro[4.5]decan-8-yl)-6-methyl-4-oxo-chromen-8-yl]ethylamino]benzoic acid], the IC50 lay in the range of 1 to 5 µM in data set [1] and 0.5 to 1 µM in data set [2]. The compound further displayed an EC50 in the data set with T-47D of 1 to 5 µM.
